2 compounds from patent publication US9592229B2, “Potent anticancer activity via dual compound activation” (priority 2012, dated 2017) can be followed below.

One test concerns MCF-7 cells. Briefly: Protection by a pan-caspase inhibitor against PAC-1/1541B-mediated cell death. The conditions noted are these: Q-VD-OPh 25 μM. Type of test: cell-based. The source says:
The proapoptotic effect of the PAC-1/1541B combination was blocked with the pan-caspase inhibitor Q-VD-OPh, consistent with the involvement of caspases in the mode of cell death (FIG. 10).

Test [1] relates to EL4 (murine lymphoma) cells. The experiment in a line: EL4 syngeneic murine tumor model. Format: in vivo, C57/BL6 mice. The note with it: PAC-1 125 mg/kg in HPβCD once-a-day for three days; tumors weighed after 8 days.
Experimental: EL4 cells (10 million cells per mouse) were injected subcutaneously into mice, the animals were split into four groups and treated with vehicle (2-hydroxypropyl-β-cyclodextrin, HPβCD), 1541B (at 17.5 mg/kg in HPβCD), PAC-1 (125 mg/kg in HPβCD), or 1541B+PAC-1 (17.5 and 125 mg/kg, respectively, in HPβCD). After eight days the mice were sacrificed and the tumors excised and weighed. Error bars equal standard error, and p-values indicated are relative to vehicle control.
To explore the therapeutic utility of this dual procaspase-3 activation strategy, the combination of PAC-1 and 1541B were examined in a murine tumor model.
C57/BL6 mice implanted with EL4 (murine lymphoma) cells were treated with PAC-1 alone (125 mg/kg), 1541B alone (17.5 mg/kg), and PAC-1+1541B (125 mg/kg and 17.5 mg/kg, respectively) once-a-day for three days.
Test [2] has as its system procaspase-3 in U-937, A549, BT-549 cell lines. The experiment in a line: Western blot of procaspase-3 cleavage to caspase-3 in cancer cell lines. Format: cell-based, human. The source says:
FIG. 5. PAC-1/1541B combinations induce rapid and dramatic procaspase-3 maturation and activation. A: The caspase-3/-7-like activity of cancer cell lysates after treatment with the PAC-1/1541B combinations. STS=staurosporine. B: Western blot of various cancer cell lines (using Cell Signaling caspase-3 antibody) after treatment with combinations of PAC-1 and 1541B.
FIG. 6. Data analogous to FIG. 5B with A: HL-60 (human leukemia), B: EL4 (murine lymphoma), C: Hs578T (human breast cancer), and D: Jurkat (human leukemia) cell lines.
FIG. 13. Western blot procaspase3 activation analysis of U-937 cells treated with increasing concentrations of 1541B and either with or without PAC-1.
To determine if the elevation of DEVDase activity was the result of enhanced cleavage of procaspase-3 to caspase-3 facilitated by compound co-treatment, cells treated with PAC-1 and 1541B combinations were assessed by Western blot.
Rather 1541 operates by an allosteric binding and activation mechanism.
For orientation: A western blot detects proteins with antibodies after separation by electrophoresis.

Structures are written as SMILES.

As to `CC(C)[C@H](NC(=O)c1ccc2ccccc2n1)C(=O)N[C@@H](CC(=O)O)C(=O)COc1c(F)cccc1F` [Q-VD-OPh], the “protection against PAC-1/1541B-mediated cell death” value with MCF-7 cells was “protects against PAC-1/1541B-mediated cell death”.
Regarding `C=CCc1cccc(/C=N/NC(=O)CN2CCN(Cc3ccccc3)CC2)c1O` [PAC-1, 2-(4-benzylpiperazin-1-yl)-N-[(2-hydroxy-3-prop-2-enyl-phenyl)methylideneamino]acetamide], in test [1], the “effect on tumor growth” value is reported as “only minimal effect”. The “activation of procaspase-3 to caspase-3 (Western blot)” value in test [2] is “low/no procaspase-3 activation”.
